In patent publication US12624128B2, “Low molecular weight chondroitin sulfate, composition, preparation method and use thereof” (NANJING HANXIN PHARMACEUTICAL TECHNOLOGY CO., LTD., priority 2019, dated 2026):

Experiments:
[1] = system: osteoporosis rats; test: Femoral ash level, osteoporosis rats (Example 24); type: in vivo; details: male rats; CSO high, medium and low dose (15, 7.5, 3.8 mg/kg)+calcium acetate 158 mg/kg; compared with model group, P<0.01, P<0.05
Method: (§1) Ninety female SD rats weighing 200-220 g were used. The rats adapted to the environment for 3 d. Fasting but freely taking water for 24 h before surgery. Rats were injected intraperitoneally with 3% chloral hydrate and anesthetised. Ten […] were used as the sham-operated group with longitudinal incisions on the skin and muscle from both sides of the lumbar and dorsal spine without removing the ovaries. For the other animals, longitudinal incisions were made from both sides of the lumbar and dorsal spine to cut the skin and muscle, and both ovaries were removed, and the wounds were sutured. All animals were intramuscular injected with penicillin for 3 consecutive days after operation. (Male rats were operated with the same method to remove testicles).
(§2) On the second day after surgery, ovariectomized rats were randomly divided into 8 groups with […] in each group:
(§3) On the second day after surgery, rats were given by intragastric administration with an administration volume of 0.2 mL/100 g. The sham-operated group and model group were given in the same volume of normal saline. […]
(§4) The rats were sacrificed, and the femur on both sides was separated. The right femur was taken and measured for the following indexes: bone weight coefficient (g/100 g body weight), bone density, ash level, bone calcium or bone phosphorus, bone hydroxyproline, HE pathology. […]

[2] = system: osteoporosis rats; test: Bone phosphorus level, osteoporosis rats (Example 24); type: in vivo; details: male rats; CSO low-dose (3.8 mg/kg)+calcium acetate 158 mg/kg; compared with model group, P<0.05, P<0.01
Method: as §1, §2, §3, §4

**Q.** For `CC(=O)[O-].CC(=O)[O-].[Ca+2]` [Ca, Calcium acetate], which “level of femoral ashes” value [1] is on record?
**A.** significantly increased

**Q.** And the bone phosphorus level [2]?
**A.** significantly increased
